For twelve compounds, GI50 and TGI results are on record in PubChem BioAssay (NCI).

Common to all, as to test: growth of human tumour cells (NCI), 48 h
For assay [1], the system named is NCI/ADR-RES ovarian.
In assay [2] the test system is SF-295 CNS.
The test system of assay [3] is PC-3 prostate.
Assay [4] has as its system SK-MEL-5 melanoma.
Assay [5] deals with KM12 colon.
Assay [6] has as its system COLO 205 colon.
Assay [7] has as its system MDA-MB-435.
The subject of assay [8] is KM20L2 colon.
Assay [9] concerns DMS 273 small cell lung.
The subject of assay [10] is DLD-1 colon.

Several values for one entry are separate records, joined by “and”; a condition that tells them apart may be missing. Identical values can stand only once.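 Method: 48-hour compound exposure of cells in 96-well plates, five concentrations, linear interpolation of endpoints. At the GI50, growth is halved. TGI denotes the concentration required for complete inhibition of growth.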

As to `COc1cc(Cn2c(-c3ccccc3)cc3c2-c2oncc2CC3)cc(OC)c1`, the GI50 in [1] was 0.208 µM; in assay [2] it was 0.209 µM; in [3], 0.677 µM; in assay [4], 0.372 µM; in assay [5], 0.313 µM; in assay [6] it was 0.256 µM. Moreover, in assay [7], the GI50 was 0.0815 µM. Moreover, the TGI in [2] was 4.03 µM; in [3], above 100 µM; in assay [4], 2.02 µM; in [5], 9.76 µM; in assay [6], 0.653 µM; in [7], 0.34 µM.

H-QIYKKYRTWYRKAWKVLGKV-NH2: the GI50 is 4.81 µM in assay [1]; 4.72 µM in [2]; 3.82 µM in assay [3]; 2.84 µM in [4]; 2.97 µM in assay [5]; 4.3 µM in assay [6]. In addition, the GI50 in [7] was 5.75 µM. Moreover, the TGI is above 100 µM in assay [1]; 23.9 µM in assay [2]; 20 µM in assay [3]; 8.7 µM in [4]; 9.37 µM in [5]; 80.7 µM in assay [6]. In [7], this compound displayed a TGI of 36.9 µM.

Take `NNC(=O)C(O)C(O)C(=O)NN` (centres undefined): the TGI in assay [1], in assay [2], in assay [3], in assay [4], in assay [5] and in assay [6] was above 100 µM throughout. In addition, the TGI in [7] is above 100 µM.

As for `O=C(NOCCO)c1cc(CN2OCCCC2=O)c(F)c(F)c1Nc1ccc(I)cc1F`, the GI50 in assay [1] was 19.4 µM and > 10 µM; in assay [2], 16.9 µM and > 10 µM; in assay [3], 31.7 µM and > 10 µM; in assay [4], 0.597 µM; in assay [5], 0.0561 µM and 0.0719 µM; in assay [6] it was < 0.01 µM and 0.00219 µM. For the same compound, in assay [7], the GI50 is < 0.01 µM and 0.00879 µM. Also, the TGI in assay [1] was above 100 µM; in assay [2] it was above 75.4 µM; in assay [3], above 84.3 µM; in assay [4], 23.9 µM and > 10 µM; in assay [5], above 100 µM; in assay [6], 14.9 µM and > 10 µM. For the same compound, the TGI in assay [7] is 77.1 µM and > 10 µM.

On to `CC(C)[Si](OCC1CC(C#N)OC(C)(C)O1)(C(C)C)C(C)C` (centres undefined), for which the TGI in assay [8] is 65.8 µM; in assay [2], 29.3 µM; in [4] it was 33 µM; in assay [5] it was 35.9 µM; in assay [9], 35.8 µM; in assay [6], 31.7 µM. The TGI in assay [10] is above 100 µM.

Regarding `C=CC(C)(O)CC/C=C(\CO)C(=O)OC1C(C)OC(O[C@](C)(C=C)CC/C=C(\CO)C(=O)O[C@H]2C[C@@]3(C(=O)OC4OC(CO)C(O)C(O)C4OC4OC(C)C(OC5OC(CO)C(O)C5O)C(OC5OC(CO)C(O)C(O)C5O)C4O)C(CC2(C)C)C2=CCC4[C@@]5(C)CC[C@H](OC6OC(COC7OC(C)C(O)C(O)C7OC7OCC(O)C(O)C7O)C(O)C(O)C6NC(C)=O)C(C)(C)C5CC[C@@]4(C)[C@]2(C)C[C@H]3O)C(O)C1O` (some centres undefined), the GI50 is 2.68 µM in assay [1]; 0.083 µM in [2]; 0.078 µM in [3]; 1.99 µM in [4]; 0.285 µM in assay [5]; 0.168 µM in assay [6]. In assay [7], the GI50 was 0.0978 µM. Further, the TGI in assay [1] is 7.84 µM; in [2], 0.312 µM; in assay [3] it was 1.97 µM; in assay [4] it was 6.22 µM; in assay [5], 1.98 µM; in [6], 0.927 µM. This compound gave a TGI in assay [7] of 0.382 µM.

For `CC(N1CCOCC1)C(O)(c1ccccc1)c1ccccn1` (centres undefined), the TGI in [1], in assay [2], in [3], in assay [4], in [5] and in [6] was above 100 µM throughout. In assay [7], the TGI was above 100 µM.

With `O=C1/C(=C\c2ccccc2)C2OCC=C3CN4CCC56c7ccccc7N1C5C2C3CC46` (centres undefined), the GI50 was above 100 µM in [1]; 3.69 µM in assay [2]; 18 µM in assay [3]; 4.84 µM in [4]; 34.4 µM in assay [5]; 17.3 µM in [6]. The GI50 in assay [7] was 3.59 µM. Further, the TGI in [1] was above 100 µM; in [2], 24.7 µM; in [3] it was above 100 µM; in assay [4] it was 17.4 µM; in [5] it was above 100 µM; in assay [6], above 100 µM. The same compound had a TGI in assay [7] above 100 µM.

In the case of `O=C(/C=C/c1ccc([N+](=O)[O-])cc1)c1cccc(Nc2nc(Nc3ccccc3)nc(Nc3ccccc3)n2)c1`, the GI50 is 18.2 µM in [1]; 9.81 µM in assay [2]; 3.15 µM in assay [3]; 1.13 µM in [4]; 5.04 µM in assay [5]; 13 µM in assay [6]. In addition, the GI50 in assay [7] is 20 µM. Further, the TGI is above 100 µM in assay [1]; above 100 µM in [2]; 30.7 µM in assay [3]; 17.6 µM in assay [4]; 29.5 µM in [5]; 61.2 µM in assay [6]. Further, the TGI in assay [7] is above 100 µM.

With `O=C(/C=C/c1cccc2ccccc12)Nc1ncc(Cc2ccccc2)s1`, the GI50 in [1] was 0.713 µM; in assay [2] it was 0.443 µM; in assay [3], 1.01 µM; in [4] it was 1.8 µM; in assay [5], 0.866 µM; in assay [6], 1.48 µM. For the same compound, the GI50 in assay [7] is 0.247 µM. Moreover, the TGI is above 69.3 µM in assay [1]; 2.33 µM in assay [2]; above 100 µM in assay [3]; above 100 µM in assay [4]; above 100 µM in assay [5]; above 100 µM in [6]. The compound further came in with a TGI in assay [7] of 0.725 µM.

In the case of `Nc1ccn(C2OC(C(OC3OC(CO)C(O)C(N)C3O)C(O)C(O)C(O)C(O)CO)C(N)C(O)C2O)c(=O)n1` (centres undefined), the TGI in assay [1] is above 100 µM; in assay [2] it was 58 µM; in assay [3] it was above 100 µM; in assay [4], above 100 µM; in [5], above 100 µM; in [6], above 100 µM. The TGI in [7] is above 100 µM.

As to `CN=C(N)N/N=C(\C)c1ccc2c(c1)Cc1ccccc1-2`, the GI50 in [1] is 2.02 µM; in [2], 1.9 µM; in assay [3], 2.39 µM; in assay [4], 1.61 µM; in assay [5] it was 1.72 µM; in assay [6], 1.66 µM. Besides, the GI50 in assay [7] was 1.64 µM. For the same compound, the TGI in assay [1] is 4.5 µM; in [2] it was 4.32 µM; in assay [3] it was 10.3 µM; in assay [4], 2.95 µM; in [5] it was 3.47 µM; in [6], 3.02 µM. This compound yielded a TGI in [7] of 3.15 µM.
